Data: ChEMBL document CHEMBL1201862, “PubChem BioAssay data set” (2004)
Calls of active or inactive are those of the source.

How the values were obtained:
[1] = target: T1, G-protein coupled receptor 55 (Homo sapiens, UniProt Q9Y2T6); experiment: GPR55 agonists via beta-arrestin recruitment, primary screen, imaging, U2OS cells, beta-arrestin-GFP redistribution (AID 1961); type: functional
Cannabinoid receptor 2 [2] = target: T2, Cannabinoid receptor 2 (Homo sapiens, UniProt P34972); experiment: SAR analysis of antagonists of the Cannabinoid Receptor 2 using an Image-Based Assay - Set 2. [Related pubchem assays (depositor defined):AID1961, AID1965]; type: functional
Cannabinoid receptor 2 [3] = target: T2, Cannabinoid receptor 2; experiment: SAR analysis of agonists of the Cannabinoid Receptor 2 using an Image-Based Assay - Set 2. [Related pubchem assays (depositor defined):AID1961, AID1965]; type: functional
[4] = target: T1, G-protein coupled receptor 55; experiment: SAR analysis of selective Agonists of GPR55 using an Image-Based Assay. [Related pubchem assays (depositor defined):AID1961, AID1965]; type: functional
Cannabinoid receptor 1 = Cannabinoid receptor 1 (Homo sapiens, UniProt P21554); experiment: SAR analysis of antagonists of the Cannabinoid Receptor 1 using an Image-Based Assay. [Related pubchem assays (depositor defined):AID1961, AID1965]; type: functional
Bcl-2-related protein A1 = target: T3, Bcl-2-related protein A1 (Mus musculus, UniProt Q07440); type: functional;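 note: confirmatory dose–response counterscreen on Bfl-1, used to check hits from a UBC13 polyubiquitin inhibitor campaign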
T3 sequence (Q07440 whole entry): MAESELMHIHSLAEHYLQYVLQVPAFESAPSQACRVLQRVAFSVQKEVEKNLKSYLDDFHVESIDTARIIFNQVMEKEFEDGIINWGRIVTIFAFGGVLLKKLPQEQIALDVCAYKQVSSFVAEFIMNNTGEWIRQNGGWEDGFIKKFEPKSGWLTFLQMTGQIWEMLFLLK

[5] = target: T4, Ubiquitin-conjugating enzyme E2 N (Homo sapiens, UniProt P61088); type: functional
T4 sequence (P61088 whole entry): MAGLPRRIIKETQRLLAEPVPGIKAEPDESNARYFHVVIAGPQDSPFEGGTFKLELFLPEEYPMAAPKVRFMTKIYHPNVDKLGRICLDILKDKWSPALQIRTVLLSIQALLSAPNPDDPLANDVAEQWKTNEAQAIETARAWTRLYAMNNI

[6] = target: T4, Ubiquitin-conjugating enzyme E2 N; type: functional; remark: listed apart in the source
[7] = target: T5, DNA repair protein RAD52 homolog (Homo sapiens, UniProt P43351); type: functional, biochemical
T5 sequence (P43351 whole entry): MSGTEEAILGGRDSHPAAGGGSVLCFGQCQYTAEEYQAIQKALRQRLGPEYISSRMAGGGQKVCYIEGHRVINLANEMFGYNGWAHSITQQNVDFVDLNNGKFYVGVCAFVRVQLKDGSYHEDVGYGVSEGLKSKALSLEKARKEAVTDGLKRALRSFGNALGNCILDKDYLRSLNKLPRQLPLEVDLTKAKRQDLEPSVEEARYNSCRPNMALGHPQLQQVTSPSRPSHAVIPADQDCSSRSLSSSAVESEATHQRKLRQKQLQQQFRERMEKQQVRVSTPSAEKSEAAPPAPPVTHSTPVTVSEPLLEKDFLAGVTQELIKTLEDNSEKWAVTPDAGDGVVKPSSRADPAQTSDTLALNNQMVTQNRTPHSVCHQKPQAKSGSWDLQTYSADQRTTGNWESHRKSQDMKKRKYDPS

Tumor necrosis factor = Tumor necrosis factor (Homo sapiens, UniProt P01375); experiment: TNFa-triggered NF-kB activation inhibitors, SAR follow-up, cell-based, revised (AID 2337); type: functional
[8] = target: T6, Nucleotide-binding oligomerization domain-containing protein 1 (Homo sapiens, UniProt Q9Y239); experiment: NOD1 signaling inhibitors, SAR follow-up, revised (AID 2333); type: functional
T6 sequence (Q9Y239 whole entry): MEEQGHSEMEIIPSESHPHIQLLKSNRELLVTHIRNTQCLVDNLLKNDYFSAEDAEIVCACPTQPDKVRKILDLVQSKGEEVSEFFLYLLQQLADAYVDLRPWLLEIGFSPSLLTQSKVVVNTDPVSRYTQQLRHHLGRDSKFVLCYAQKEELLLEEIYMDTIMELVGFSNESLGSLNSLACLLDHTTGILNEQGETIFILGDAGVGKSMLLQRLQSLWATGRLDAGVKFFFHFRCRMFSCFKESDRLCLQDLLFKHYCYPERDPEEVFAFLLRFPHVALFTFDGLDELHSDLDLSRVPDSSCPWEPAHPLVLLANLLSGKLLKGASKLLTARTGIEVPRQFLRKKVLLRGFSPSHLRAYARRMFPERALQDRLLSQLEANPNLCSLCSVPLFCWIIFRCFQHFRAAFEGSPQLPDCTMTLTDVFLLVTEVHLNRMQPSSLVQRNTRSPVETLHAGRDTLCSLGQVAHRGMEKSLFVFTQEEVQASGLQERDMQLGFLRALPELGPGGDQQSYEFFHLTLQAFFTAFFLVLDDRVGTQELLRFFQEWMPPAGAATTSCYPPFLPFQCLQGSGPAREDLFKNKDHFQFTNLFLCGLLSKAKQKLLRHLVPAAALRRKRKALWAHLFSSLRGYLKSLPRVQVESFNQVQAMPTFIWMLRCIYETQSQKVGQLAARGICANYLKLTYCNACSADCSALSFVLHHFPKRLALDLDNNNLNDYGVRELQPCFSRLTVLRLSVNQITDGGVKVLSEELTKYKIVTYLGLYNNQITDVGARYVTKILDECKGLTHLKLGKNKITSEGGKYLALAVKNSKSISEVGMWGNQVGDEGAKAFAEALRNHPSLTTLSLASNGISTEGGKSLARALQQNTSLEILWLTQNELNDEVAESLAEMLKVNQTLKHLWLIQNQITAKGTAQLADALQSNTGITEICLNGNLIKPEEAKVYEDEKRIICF

HEK293 [9] = experiment: cells; conditions: Homo sapiens
[10] = target: T1, G-protein coupled receptor 55; experiment: GPR55 antagonists, SAR follow-up, counter-screen for GPR35 antagonist project, imaging, image-based (AID 2397); type: functional
cells [11] = type: functional, cell-based
cells [12] = type: functional, cell-based; remark: listed apart in the source
Exodeoxyribonuclease V = Exodeoxyribonuclease V (Escherichia coli (strain K12), UniProt P04993+P07648+P08394); experiment: E. coli RecBCD inhibitors, dose response, counter-screen for AddAB inhibitor project, absorbance, V66 E. coli, mutant T4 phage (AID 492957); type: functional, cell-based, Escherichia coli str. K-12 substr. MG1655
[13] = Counterscreen for AddAB inhibitors: absorbance-based bacterial cell-based high throughput dose response assay for inhibitors of bacterial viability. [Related pubchem assays (depositor defined):AID435030, AID449728, AID449731, AID488942, AID488955, AID488956]; type: functional
HEK293 [14] = experiment: inhibitors of LMP1-driven NF-kB reporter, dose response, cell-based, HEK293, luciferase, cherry-pick (AID 588343); type: functional; conditions: Homo sapiens
[15] = target: Heat shock protein HSP 90-alpha (Homo sapiens, UniProt P07900); type: functional, organism-based
[16] = Shn3 3'UTR reporter inhibitors, dose response, cell-based, Clone20 osteoblasts, firefly luciferase, cherry-picked (AID 624132); type: functional;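 note: firefly luciferase luminescence from reporter carrying the Shn3 3'UTR in osteoblasts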
[17] = HepG2 cell cytotoxicity, dose response, cytotoxicity control for Shn3 inhibitor project, CellTiter-Glo, cherry-picked (AID 624134); type: functional, cell-based
[18] = control 3'UTR Renilla luciferase suppression, dose response, counter-screen for Shn3 inhibitor project, cell-based, Clone20-Shn3RL, cherry-picked (AID 624133); type: functional

T1 sequence (Q9Y2T6 whole entry): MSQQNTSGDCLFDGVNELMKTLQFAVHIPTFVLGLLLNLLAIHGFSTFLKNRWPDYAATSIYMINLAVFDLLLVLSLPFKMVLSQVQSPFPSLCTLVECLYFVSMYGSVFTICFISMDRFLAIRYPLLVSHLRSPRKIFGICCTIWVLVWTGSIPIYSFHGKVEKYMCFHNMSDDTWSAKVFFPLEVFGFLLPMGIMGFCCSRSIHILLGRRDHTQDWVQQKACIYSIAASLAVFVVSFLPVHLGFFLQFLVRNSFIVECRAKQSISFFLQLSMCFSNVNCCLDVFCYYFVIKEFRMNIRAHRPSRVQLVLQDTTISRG
Tumor necrosis factor, sequence (P01375 whole entry, the tested form may be a part): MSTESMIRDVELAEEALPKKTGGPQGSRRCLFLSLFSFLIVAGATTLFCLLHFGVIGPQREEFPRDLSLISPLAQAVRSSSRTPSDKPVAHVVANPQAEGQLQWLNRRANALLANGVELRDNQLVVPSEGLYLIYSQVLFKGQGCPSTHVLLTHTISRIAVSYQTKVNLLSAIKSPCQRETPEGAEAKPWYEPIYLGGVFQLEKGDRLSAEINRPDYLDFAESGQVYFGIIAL
T2 sequence (P34972 whole entry): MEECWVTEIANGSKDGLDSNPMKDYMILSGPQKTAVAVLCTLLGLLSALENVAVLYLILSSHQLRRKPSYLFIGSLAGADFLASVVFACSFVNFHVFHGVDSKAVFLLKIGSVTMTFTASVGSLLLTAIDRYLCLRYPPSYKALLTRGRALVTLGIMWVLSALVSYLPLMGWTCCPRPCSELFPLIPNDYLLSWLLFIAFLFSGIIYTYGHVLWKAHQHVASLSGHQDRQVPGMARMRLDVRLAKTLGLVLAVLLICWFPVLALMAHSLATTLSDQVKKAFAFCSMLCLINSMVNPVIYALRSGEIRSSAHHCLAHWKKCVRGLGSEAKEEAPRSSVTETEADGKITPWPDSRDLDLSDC
Exodeoxyribonuclease V, sequence (P04993 whole entry): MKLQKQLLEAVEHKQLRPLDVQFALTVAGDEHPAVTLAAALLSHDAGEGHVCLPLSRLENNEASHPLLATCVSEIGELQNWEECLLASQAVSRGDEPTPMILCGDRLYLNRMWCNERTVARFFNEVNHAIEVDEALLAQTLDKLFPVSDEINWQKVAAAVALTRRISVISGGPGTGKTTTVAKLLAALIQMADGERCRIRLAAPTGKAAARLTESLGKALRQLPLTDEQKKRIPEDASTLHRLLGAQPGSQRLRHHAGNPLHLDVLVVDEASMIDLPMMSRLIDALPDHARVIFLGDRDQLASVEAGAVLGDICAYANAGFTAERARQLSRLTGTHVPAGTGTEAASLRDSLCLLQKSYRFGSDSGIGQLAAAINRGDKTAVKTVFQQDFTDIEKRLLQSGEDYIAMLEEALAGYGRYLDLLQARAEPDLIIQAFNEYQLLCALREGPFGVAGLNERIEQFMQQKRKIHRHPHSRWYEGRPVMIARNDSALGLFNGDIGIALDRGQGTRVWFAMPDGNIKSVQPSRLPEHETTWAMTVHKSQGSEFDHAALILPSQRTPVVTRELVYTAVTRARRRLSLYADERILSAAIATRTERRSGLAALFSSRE
Exodeoxyribonuclease V, sequence (P07648 whole entry): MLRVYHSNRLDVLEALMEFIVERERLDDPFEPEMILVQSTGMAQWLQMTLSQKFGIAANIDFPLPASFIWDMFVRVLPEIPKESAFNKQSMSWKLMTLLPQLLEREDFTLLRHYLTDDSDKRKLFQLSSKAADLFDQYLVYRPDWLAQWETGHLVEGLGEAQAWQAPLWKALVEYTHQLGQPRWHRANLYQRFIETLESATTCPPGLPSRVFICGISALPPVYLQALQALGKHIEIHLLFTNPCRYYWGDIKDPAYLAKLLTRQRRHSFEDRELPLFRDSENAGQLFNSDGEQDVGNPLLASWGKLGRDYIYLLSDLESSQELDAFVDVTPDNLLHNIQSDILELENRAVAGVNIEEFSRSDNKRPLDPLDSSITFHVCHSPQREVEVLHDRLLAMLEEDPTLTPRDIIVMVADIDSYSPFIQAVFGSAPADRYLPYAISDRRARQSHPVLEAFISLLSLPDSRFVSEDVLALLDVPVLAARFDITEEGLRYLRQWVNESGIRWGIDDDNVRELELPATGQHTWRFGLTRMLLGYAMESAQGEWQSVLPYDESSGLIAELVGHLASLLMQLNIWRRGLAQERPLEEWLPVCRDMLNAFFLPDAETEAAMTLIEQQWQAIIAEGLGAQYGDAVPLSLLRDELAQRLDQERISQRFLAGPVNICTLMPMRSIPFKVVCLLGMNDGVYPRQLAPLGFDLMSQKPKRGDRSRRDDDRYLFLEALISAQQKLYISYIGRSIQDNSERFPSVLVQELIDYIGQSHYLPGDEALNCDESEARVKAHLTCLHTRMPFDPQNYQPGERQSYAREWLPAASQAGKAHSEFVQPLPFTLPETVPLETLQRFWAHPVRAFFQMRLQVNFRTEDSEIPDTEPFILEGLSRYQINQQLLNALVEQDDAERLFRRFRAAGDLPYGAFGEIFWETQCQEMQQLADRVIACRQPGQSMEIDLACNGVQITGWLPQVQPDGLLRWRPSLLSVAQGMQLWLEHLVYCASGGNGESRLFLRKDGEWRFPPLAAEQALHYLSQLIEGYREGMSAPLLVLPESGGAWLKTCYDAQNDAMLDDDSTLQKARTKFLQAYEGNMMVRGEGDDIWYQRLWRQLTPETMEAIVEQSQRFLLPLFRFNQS
Exodeoxyribonuclease V, sequence (P08394 whole entry): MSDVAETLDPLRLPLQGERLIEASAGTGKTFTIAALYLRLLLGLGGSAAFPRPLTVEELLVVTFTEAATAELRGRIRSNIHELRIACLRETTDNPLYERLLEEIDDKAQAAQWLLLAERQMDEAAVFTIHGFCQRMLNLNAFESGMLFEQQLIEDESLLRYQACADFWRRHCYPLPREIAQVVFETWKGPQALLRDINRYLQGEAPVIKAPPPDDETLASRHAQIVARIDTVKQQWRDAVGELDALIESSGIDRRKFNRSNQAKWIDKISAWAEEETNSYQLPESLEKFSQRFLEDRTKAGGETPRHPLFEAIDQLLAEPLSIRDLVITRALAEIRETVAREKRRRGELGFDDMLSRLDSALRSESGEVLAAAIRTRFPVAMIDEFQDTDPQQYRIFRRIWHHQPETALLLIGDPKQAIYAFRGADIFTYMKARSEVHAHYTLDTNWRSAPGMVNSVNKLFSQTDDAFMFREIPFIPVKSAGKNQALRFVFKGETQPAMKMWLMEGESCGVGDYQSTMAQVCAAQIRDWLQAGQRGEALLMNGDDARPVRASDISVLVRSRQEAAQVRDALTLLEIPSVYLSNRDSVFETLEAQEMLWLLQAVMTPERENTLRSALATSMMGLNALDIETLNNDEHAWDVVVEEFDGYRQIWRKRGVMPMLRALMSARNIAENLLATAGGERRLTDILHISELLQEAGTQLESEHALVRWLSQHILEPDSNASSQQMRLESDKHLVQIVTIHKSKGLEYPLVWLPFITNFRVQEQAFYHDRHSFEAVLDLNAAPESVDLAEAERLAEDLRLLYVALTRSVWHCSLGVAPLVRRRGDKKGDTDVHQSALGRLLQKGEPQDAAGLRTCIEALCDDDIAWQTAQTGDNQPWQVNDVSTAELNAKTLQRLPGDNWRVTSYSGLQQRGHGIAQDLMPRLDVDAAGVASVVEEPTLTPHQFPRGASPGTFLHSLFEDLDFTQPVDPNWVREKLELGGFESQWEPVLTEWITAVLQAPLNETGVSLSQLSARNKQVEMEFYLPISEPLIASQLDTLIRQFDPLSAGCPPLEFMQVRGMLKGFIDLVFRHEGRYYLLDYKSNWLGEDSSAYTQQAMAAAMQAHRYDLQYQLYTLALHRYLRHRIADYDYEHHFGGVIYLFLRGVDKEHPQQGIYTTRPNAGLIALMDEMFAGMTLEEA
Cannabinoid receptor 1, sequence (P21554 whole entry): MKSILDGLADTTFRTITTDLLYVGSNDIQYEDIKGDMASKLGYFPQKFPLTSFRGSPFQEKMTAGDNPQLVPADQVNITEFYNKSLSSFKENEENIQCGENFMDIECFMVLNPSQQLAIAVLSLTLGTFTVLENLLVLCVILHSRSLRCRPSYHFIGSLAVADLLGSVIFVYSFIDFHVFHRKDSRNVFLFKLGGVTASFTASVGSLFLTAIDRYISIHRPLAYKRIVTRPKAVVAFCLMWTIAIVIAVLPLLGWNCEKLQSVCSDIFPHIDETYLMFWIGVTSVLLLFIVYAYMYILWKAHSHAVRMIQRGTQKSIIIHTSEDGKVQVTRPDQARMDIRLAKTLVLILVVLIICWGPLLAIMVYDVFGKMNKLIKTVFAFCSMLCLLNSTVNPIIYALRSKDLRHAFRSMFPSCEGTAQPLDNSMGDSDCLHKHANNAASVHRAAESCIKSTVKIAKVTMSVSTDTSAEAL

For `O=C(CSc1nc2ccccc2s1)N1c2ccccc2Sc2ccc(C(F)(F)F)cc21`, which EC50 [1] is on record?
The EC50 was 1 µM (active).

What about the IC50 (Cannabinoid receptor 2 [2]) of the same compound?
Its IC50 is > 32 µM (inactive).

And the EC50 (Cannabinoid receptor 2 [3])?
Its EC50 is < 0.062 µM (active).

And the EC50 [4]?
The EC50 was 1.17 µM (active).

What about the IC50 (Cannabinoid receptor 1) of the same compound?
Its IC50 is > 32 µM (inactive).

With `NC(=S)N=Nc1c(O)n(C2OC(=O)c3ccccc32)c2ccccc12` (stereo not drawn) as the compound, how does the IC50 (Bcl-2-related protein A1) read?
Its IC50 is > 20 µM (inactive).

What about the IC50 [5] of the same compound?
Its IC50 is 3.62 µM (active).

What about the IC50 [6] of the same compound?
The IC50 was 2.38 µM (active).

With `N[C@@H](CO)c1cn([C@@H](Cc2cc3ccccc3[nH]2)C(=O)N2CCNCC2)nn1` as the compound, how does the IC50 (Bcl-2-related protein A1) read?
Its IC50 is > 20 µM (inactive).

And the IC50 [5]?
Its IC50 is 12.3 µM (active).

What about the IC50 [6] of the same compound?
Its IC50 is 10.9 µM (active).

What about the AC50 [7] of the same compound?
Its AC50 is 3.52 µM (active).

Which results are given for `CCc1cc(C(=O)NC2CCCc3c2cnn3-c2ccc(F)cc2F)no1` (stereo not drawn)?
IC50 (Tumor necrosis factor): > 20 µM (inactive); IC50 [8]: 10.4 µM (active); IC50 (HEK293 [9]): > 20 µM (inactive)

Which results are given for `CCOC(=O)c1ccc(NC(=O)c2ccc(CCN3CCc4ccccc4C3)cc2)cc1`?
IC50 (Tumor necrosis factor): 10.8 µM (active); IC50 [8]: 10.6 µM (active); IC50 (HEK293 [9]): > 20 µM (inactive)

Which IC50 [10] does the source give for `c1ccc(Cn2ncc3c(N4CCN(c5ccccc5)CC4)ncnc32)cc1` here?
Its IC50 is 29.1 µM (inactive).

What does the source list for `CC(C)C(=O)NC(c1ccc(Cl)cc1Cl)c1ccc2cccnc2c1O` (stereo not drawn)?
EC50 (cells [11]): 7.49 µM (active); EC50 (cells [12]): > 350 µM (not active); IC50 (Exodeoxyribonuclease V): > 119 µM (inactive); IC50 [13]: > 119 µM (inactive); AC50 (HEK293 [14]): 4.52 µM (active); AC50 [15]: 25.5 µM (active); AC50 [16]: 0.691 µM (active); AC50 [17]: 1.11 µM (active); AC50 [18]: 1.6 µM (active)
